# From ChEMBL document CHEMBL4732221, “Design, synthesis and bioactivity evaluation of novel pyrazole linked phenylthiazole derivatives in context of antibacterial activity” (Bioorg Med Chem Lett, 2021)
# Activity calls are given as the source filed them. No cut-off for these calls is given here.
# What was measured:
# Type in all cases: functional
# Cryptococcus neoformans [1] = assay: Antifungal activity against Cryptococcus neoformans var. grubii ATCC 208821) assessed as growth inhibition after 36 hrs by monochromator plate assay relative to control
# Candida albicans [2] = assay: Antifungal activity against Candida albicans ATCC 90028 assessed as growth inhibition at 32 ug/ml after 36 hrs by monochromator plate assay relative to control; settings: for inhibition: dose 32.0 µg/ml
# Cryptococcus neoformans [3] = assay: Antifungal activity against Cryptococcus neoformans var. grubii ATCC 208821 assessed as growth inhibition at 32 ug/ml after 36 hrs by monochromator plate assay relative to control; settings: dose 32.0 µg/ml
# Staphylococcus aureus [4] = assay: Antibacterial activity against methicillin-resistant Staphylococcus aureus ATCC 43300 assessed as growth inhibition after 18 hrs by monochromator plate assay
# Escherichia coli [5] = assay: Antibacterial activity against Escherichia coli ATCC 25922 assessed as growth inhibition at 32 ug/ml after 18 hrs by monochromator plate assay relative to control; settings: dose 32.0 µg/ml
# Acinetobacter baumannii [6] = assay: Antibacterial activity against Acinetobacter baumannii ATCC 19606 assessed as growth inhibition after 18 hrs by monochromator plate assay
# Klebsiella pneumoniae [7] = assay: Antibacterial activity against Klebsiella pneumoniae ATCC 700603 assessed as growth inhibition after 18 hrs by monochromator plate assay
# Pseudomonas aeruginosa [8] = assay: Antibacterial activity against Pseudomonas aeruginosa ATCC 27853 assessed as growth inhibition after 18 hrs by monochromator plate assay
# Acinetobacter baumannii [9] = assay: Antibacterial activity against Acinetobacter baumannii ATCC 19606 assessed as growth inhibition at 32 ug/ml after 18 hrs by monochromator plate assay relative to control; settings: for inhibition: dose 32.0 µg/ml
# Escherichia coli [10] = assay: Antibacterial activity against Escherichia coli ATCC 25922 assessed as growth inhibition after 18 hrs by monochromator plate assay
# Staphylococcus aureus [11] = assay: Antibacterial activity against methicillin-resistant Staphylococcus aureus ATCC 43300 assessed as growth inhibition at 32 ug/ml after 18 hrs by monochromator plate assay relative to control
# Candida albicans [12] = assay: Antifungal activity against Candida albicans ATCC 90028 assessed as growth inhibition after 36 hrs by monochromator plate assay
# Pseudomonas aeruginosa [13] = assay: Antibacterial activity against Pseudomonas aeruginosa ATCC 27853 assessed as growth inhibition at 32 ug/ml after 18 hrs by monochromator plate assay relative to control
# Klebsiella pneumoniae [14] = assay: Antibacterial activity against Klebsiella pneumoniae ATCC 700603 assessed as growth inhibition at 32 ug/ml after 18 hrs by microplate reader assay relative to control; settings: for inhibition: dose 32.0 µg/ml
SMILES,MIC (Cryptococcus neoformans [1]),inhibition at 32 µg/mL (Candida albicans [2]),inhibition (Cryptococcus neoformans [3]),MIC (Staphylococcus aureus [4]),inhibition (Escherichia coli [5]),MIC (Acinetobacter baumannii [6]),MIC (Klebsiella pneumoniae [7]),MIC (Pseudomonas aeruginosa [8]),inhibition (Acinetobacter baumannii [9]),MIC (Escherichia coli [10]),inhibition at 32 µg/mL (Staphylococcus aureus [11]),MIC (Candida albicans [12]),inhibition at 32 µg/mL (Pseudomonas aeruginosa [13]),inhibition at 32 µg/mL (Klebsiella pneumoniae [14]),inhibition at 32 µg/mL (Acinetobacter baumannii [9]),inhibition (Candida albicans [2]),inhibition (Staphylococcus aureus [11]; dose 32.0 µg/ml),inhibition (Pseudomonas aeruginosa [13]; dose 32.0 µg/ml),inhibition (Klebsiella pneumoniae [14])
Cc1nc(-c2ccc(-c3ccccc3)cc2)sc1-c1cc(C(=O)Nc2ccc(C(F)(F)F)cc2)n[nH]1,inactive,4.3%,inactive,> 32 µg/mL,inactive,inactive,> 32 µg/mL,> 32 µg/mL,inactive,inactive,9.9%,> 32 µg/mL,2.8%,0.8%,–,–,–,–,–
Cc1ccc(NC(=O)c2cc(-c3sc(-c4ccc(-c5ccccc5)cc4)nc3C)[nH]n2)cc1C,inactive,10.1%,inactive,> 32 µg/mL,inactive,inactive,> 32 µg/mL,> 32 µg/mL,inactive,inactive,10.8%,> 32 µg/mL,2.2%,3.5%,–,–,–,–,–
CCCCc1ccc(NC(=O)c2cc(-c3sc(-c4ccc(-c5ccccc5)cc4)nc3C)[nH]n2)cc1,inactive,13.5%,inactive,> 32 µg/mL,inactive,> 32 µg/mL,> 32 µg/mL,> 32 µg/mL,–,inactive,9.5%,> 32 µg/mL,5.6%,3.3%,4.1%,–,–,–,–
Cc1nc(-c2ccc(I)cc2)sc1-c1cc(C(=O)NN2CCOCC2)n[nH]1,inactive,3.5%,inactive,> 32 µg/mL,inactive,> 32 µg/mL,> 32 µg/mL,> 32 µg/mL,–,inactive,15.7%,> 32 µg/mL,10.1%,8.4%,2.8%,–,–,–,–
Cc1nc(-c2ccc(-c3ccccc3)cc2)sc1-c1cc(C(=O)Nc2cccc3ccccc23)n[nH]1,inactive,5.1%,inactive,> 32 µg/mL,inactive,> 32 µg/mL,> 32 µg/mL,> 32 µg/mL,–,inactive,14.2%,> 32 µg/mL,8.2%,8.9%,0.9%,–,–,–,–
OC(Cn1cncn1)(Cn1cncn1)c1ccc(F)cc1F [FLUCONAZOLE],8 µg/mL,–,inactive,–,–,–,–,–,–,–,–,0.125 µg/mL,–,–,–,inactive,–,–,–
Cc1ccc(-c2ccc(-c3nc(C)c(-c4cc(C(=O)NC5CCCCC5)n[nH]4)s3)cc2)cc1,inactive,18.9%,inactive,> 32 µg/mL,inactive,> 32 µg/mL,> 32 µg/mL,> 32 µg/mL,–,inactive,23.8%,> 32 µg/mL,16.5%,12.2%,4.3%,–,–,–,–
CN[C@H](CC(C)C)C(=O)N[C@H]1C(=O)N[C@@H](CC(N)=O)C(=O)N[C@H]2C(=O)N[C@H]3C(=O)N[C@H](C(=O)N[C@H](C(=O)O)c4cc(O)cc(O)c4-c4cc3ccc4O)[C@H](O)c3ccc(c(Cl)c3)Oc3cc2cc(c3O[C@@H]2O[C@H](CO)[C@@H](O)[C@H](O)[C@H]2O[C@H]2C[C@](C)(N)[C@H](O)[C@H](C)O2)Oc2ccc(cc2Cl)[C@H]1O,–,–,–,–,–,–,–,–,–,–,–,–,–,–,–,–,inactive,–,–
Cc1nc(-c2ccc(I)cc2)sc1-c1cc(C(=O)NC2CCCCC2)n[nH]1,inactive,40.5%,inactive,> 32 µg/mL,inactive,inactive,> 32 µg/mL,> 32 µg/mL,inactive,inactive,12.9%,> 32 µg/mL,17.8%,6.9%,–,–,–,–,–
Cc1nc(-c2ccc(-c3ccccc3)cc2)sc1-c1cc(C(=O)Nc2ccc(F)cc2)n[nH]1,inactive,19.6%,inactive,> 32 µg/mL,inactive,> 32 µg/mL,> 32 µg/mL,> 32 µg/mL,–,inactive,15.1%,> 32 µg/mL,5.1%,4.4%,3%,–,–,–,–
Cc1nc(-c2ccc(-c3ccccc3)cc2)sc1-c1cc(C(=O)NC2CCCCC2)n[nH]1,inactive,–,inactive,> 32 µg/mL,inactive,> 32 µg/mL,> 32 µg/mL,> 32 µg/mL,–,inactive,84.9%,inactive,6.6%,6.9%,2.9%,inactive,–,–,–
Cc1nc(-c2ccc(-c3ccccc3)cc2)sc1-c1cc(C(=O)NNc2ccccc2)n[nH]1,inactive,17.8%,inactive,> 32 µg/mL,inactive,> 32 µg/mL,inactive,inactive,–,inactive,8.2%,> 32 µg/mL,–,–,5.5%,–,–,inactive,inactive
COC(=O)c1cc(-c2sc(-c3ccc(I)cc3)nc2C)[nH]n1,inactive,5.1%,inactive,> 32 µg/mL,inactive,> 32 µg/mL,inactive,> 32 µg/mL,–,inactive,14.2%,> 32 µg/mL,6.6%,–,4.9%,–,–,–,inactive
Cc1nc(-c2ccc(-c3cccc4ccccc34)cc2)sc1-c1cc(C(=O)NC2CCCCC2)n[nH]1,inactive,40.8%,inactive,> 32 µg/mL,inactive,inactive,inactive,> 32 µg/mL,inactive,inactive,19.4%,> 32 µg/mL,6.1%,–,–,–,–,–,inactive
Cc1nc(-c2ccc(-c3ccccc3)cc2)sc1-c1cc(C(=O)Nc2ccc(C(C)(C)C)cc2)n[nH]1,inactive,5.2%,inactive,> 32 µg/mL,inactive,> 32 µg/mL,> 32 µg/mL,> 32 µg/mL,–,inactive,13.2%,> 32 µg/mL,2.2%,5.2%,3%,–,–,–,–
Cc1nc(-c2ccc(I)cc2)sc1-c1cc(C(=O)Nc2ccccc2)n[nH]1,inactive,4.6%,inactive,> 32 µg/mL,inactive,inactive,> 32 µg/mL,> 32 µg/mL,inactive,inactive,19%,> 32 µg/mL,11.1%,4.7%,–,–,–,–,–
CCOC(=O)c1cc(-c2sc(-c3ccc(-c4ccccc4)cc3)nc2C)[nH]n1,inactive,5.6%,inactive,> 32 µg/mL,inactive,> 32 µg/mL,inactive,> 32 µg/mL,–,inactive,13.6%,> 32 µg/mL,1.5%,–,2.8%,–,–,–,inactive
Cc1nc(-c2ccc(-c3cccc4c3OCO4)cc2)sc1-c1cc(C(=O)NC2CCCCC2)n[nH]1,inactive,0.9%,inactive,> 32 µg/mL,inactive,inactive,inactive,> 32 µg/mL,inactive,inactive,41.2%,> 32 µg/mL,6.2%,–,–,–,–,–,inactive
